Laboratory results from patent US20100099561A1, “HETEROBICYCLIC ALKYLTHIO-BRIDGED ISOXAZOLINES” (E.I. DU PONT DE NEMOURS AND COMPANY, priority 2008, published 2010).

Legend:
Format in all cases: in vivo
[1] = tested on: wheat (Triticum aestivum); assay: Test A preemergence, wheat; settings: 0 to 100 scale (0 no effect, 100 complete control)
From the text: (§1) Seeds of barnyardgrass (Echinochloa crus-galli), large crabgrass (Digitaria sanguinalis), giant foxtail (Setaria faberi), morningglory (Ipomoea spp.), pigweed (Amaranthus retroflexus), velvetleaf (Abutilon theophrasti), wheat (Triticum aestivum), and corn (Zea mays) were planted into a blend of loam soil and sand and treated preemergence with a directed soil spray using test chemicals formulated in a non-phytotoxic solvent mixture which included a surfactant. At the same time these species were also treated with postemergence applications of test compounds formulated in the same manner. Plants ranged in height from two to ten cm and were in the one- to two-leaf stage for the postemergence treatment. Treated plants and untreated controls were maintained in a greenhouse for approximately ten days, after which time all treated plants were compared to untreated controls and visually evaluated for injury. Plant response ratings, summarized in Table A, are based on a 0 to 100 scale where 0 is no effect and 100 is complete control. A dash (-) response means no test result.

[2] = tested on: velvetleaf (Abutilon theophrasti); assay: Test A postemergence, velvetleaf; settings: 0 to 100 scale (0 no effect, 100 complete control)
From the text: as §1

[3] = tested on: giant foxtail (Setaria faberi); assay: Test A preemergence, giant foxtail; settings: 0 to 100 scale (0 no effect, 100 complete control)
From the text: as §1

[4] = tested on: large crabgrass (Digitaria sanguinalis); assay: Test A preemergence, large crabgrass; settings: 0 to 100 scale (0 no effect, 100 complete control)
From the text: as §1

[5] = tested on: velvetleaf (Abutilon theophrasti); assay: Test A preemergence, velvetleaf; settings: 0 to 100 scale (0 no effect, 100 complete control)
From the text: as §1

rice (Oryza sativa) = assay: Test B flooded paddy test, rice; settings: Flood, scale 0 to 100
From the text: (§2) Plant species in the flooded paddy test consisted of rice (Oryza sativa), umbrella sedge (Cyperus difformis), ducksalad (Heteranthera limosa) and barnyardgrass (Echinochloa crus-galli) grown to the 2-leaf stage for testing. At time of treatment, test pots were flooded to 3 cm above the soil surface, treated by application of test compounds directly to the paddy water, and then maintained at that water depth for the duration of the test. Treated plants and controls were maintained in a greenhouse for 13 to 15 days, after which time all species were compared to controls and visually evaluated. Plant response ratings, summarized in Table B, are based on a scale of 0 to 100 where 0 is no effect and 100 is complete control. A dash (-) response means no test result.

[6] = tested on: barnyardgrass (Echinochloa crus-galli); assay: Test A postemergence, barnyardgrass; settings: 0 to 100 scale (0 no effect, 100 complete control)
From the text: as §1

corn (Zea mays) [7] = assay: Test A preemergence, corn; settings: 0 to 100 scale (0 no effect, 100 complete control)
From the text: as §1

[8] = tested on: umbrella sedge (Cyperus difformis); assay: Test B flooded paddy test, umbrella sedge; settings: Flood, scale 0 to 100
From the text: as §2

[9] = tested on: barnyardgrass (Echinochloa crus-galli); assay: Test B flooded paddy test, barnyardgrass; settings: Flood
From the text: as §2

[10] = tested on: morningglory (Ipomoea spp.); assay: Test A preemergence, morningglory; settings: 0 to 100 scale (0 no effect, 100 complete control)
From the text: as §1

[11] = tested on: giant foxtail (Setaria faberi); assay: Test A postemergence, giant foxtail; settings: 0 to 100 scale (0 no effect, 100 complete control)
From the text: as §1

corn (Zea mays) [12] = assay: Test A postemergence, corn; settings: 0 to 100 scale (0 no effect, 100 complete control)
From the text: as §1

[13] = tested on: ducksalad (Heteranthera limosa); assay: Test B flooded paddy test, ducksalad; settings: Flood, scale 0 to 100
From the text: as §2

[14] = tested on: large crabgrass (Digitaria sanguinalis); assay: Test A postemergence, large crabgrass; settings: 0 to 100 scale (0 no effect, 100 complete control)
From the text: as §1

[15] = tested on: pigweed (Amaranthus retroflexus); assay: Test A postemergence, pigweed; settings: 0 to 100 scale (0 no effect, 100 complete control)
From the text: as §1

[16] = tested on: morningglory (Ipomoea spp.); assay: Test A postemergence, morningglory; settings: 0 to 100 scale (0 no effect, 100 complete control)
From the text: as §1

[17] = tested on: barnyardgrass (Echinochloa crus-galli); assay: Test A preemergence, barnyardgrass; settings: 0 to 100 scale (0 no effect, 100 complete control)
From the text: as §1

[18] = tested on: pigweed (Amaranthus retroflexus); assay: Test A preemergence, pigweed; settings: 0 to 100 scale (0 no effect, 100 complete control)
From the text: as §1

[19] = tested on: wheat (Triticum aestivum); assay: Test A postemergence, wheat; settings: 0 to 100 scale (0 no effect, 100 complete control)
From the text: as §1

Structure (SMILES): CC1(C)CC([S+]([O-])Cc2c(C(F)(F)F)nc3n(c2=O)CCS3)=NO1 (stereo not shown) [Compound 5]
- Plant response rating, Wheat ([1]; 125 g ai/ha): 0
- Plant response rating, Wheat ([1]; 500 g ai/ha): 0
- Plant response rating, Velvetleaf ([2]; 125 g ai/ha): 0
- Plant response rating, Velvetleaf ([2]; 500 g ai/ha): 40
- Plant response rating, Foxtail, Giant ([3]; 125 g ai/ha): 30
- Plant response rating, Foxtail, Giant ([3]; 500 g ai/ha): 80
- Plant response rating, Crabgrass, Large ([4]; 125 g ai/ha): 40
- Plant response rating, Crabgrass, Large ([4]; 500 g ai/ha): 80
- Plant response rating, Velvetleaf ([5]; 125 g ai/ha): 0
- Plant response rating, Velvetleaf ([5]; 500 g ai/ha): 0
- Plant response rating, Rice (rice (Oryza sativa); 62 g ai/ha): 0
- Plant response rating, Rice (rice (Oryza sativa); 250 g ai/ha): 0
- Plant response rating, Barnyardgrass ([6]; 125 g ai/ha): 30
- Plant response rating, Barnyardgrass ([6]; 500 g ai/ha): 60
- Plant response rating, Corn (corn (Zea mays) [7]; 125 g ai/ha): 0
- Plant response rating, Corn (corn (Zea mays) [7]; 500 g ai/ha): 0
- Plant response rating, Sedge, Umbrella ([8]; 62 g ai/ha): 0
- Plant response rating, Sedge, Umbrella ([8]; 250 g ai/ha): 45
- Plant response rating, Barnyardgrass ([9]; 62 g ai/ha, scale 0 to 100): 10
- Plant response rating, Barnyardgrass ([9]; 250 g ai/ha, scale 0 to 100 (0 no effect, 100 complete control)): 30
- Plant response rating, Morningglory ([10]; 125 g ai/ha): 0
- Plant response rating, Morningglory ([10]; 500 g ai/ha): 0
- Plant response rating, Foxtail, Giant ([11]; 125 g ai/ha): 40
- Plant response rating, Foxtail, Giant ([11]; 500 g ai/ha): 70
- Plant response rating, Corn (corn (Zea mays) [12]; 125 g ai/ha): 0
- Plant response rating, Corn (corn (Zea mays) [12]; 500 g ai/ha): 30
- Plant response rating, Ducksalad ([13]; 62 g ai/ha): 0
- Plant response rating, Ducksalad ([13]; 250 g ai/ha): 20
- Plant response rating, Crabgrass, Large ([14]; 125 g ai/ha): 10
- Plant response rating, Crabgrass, Large ([14]; 500 g ai/ha): 70
- Plant response rating, Pigweed ([15]; 125 g ai/ha): 0
- Plant response rating, Pigweed ([15]; 500 g ai/ha): 10
- Plant response rating, Morningglory ([16]; 125 g ai/ha): 0
- Plant response rating, Morningglory ([16]; 500 g ai/ha): 0
- Plant response rating, Barnyardgrass ([17]; 125 g ai/ha): 0
- Plant response rating, Barnyardgrass ([17]; 500 g ai/ha): 70
- Plant response rating, Pigweed ([18]; 125 g ai/ha): 40
- Plant response rating, Pigweed ([18]; 500 g ai/ha): 60
- Plant response rating, Wheat ([19]; 125 g ai/ha): 0
- Plant response rating, Wheat ([19]; 500 g ai/ha): 0
